Results on five compounds are retold here after ChEMBL document CHEMBL4184302 (Bioorg Med Chem Lett, 2018).

Broadly, the IC50 is the midpoint of a concentration-inhibition curve. By pIC50 is commonly meant the negative decadic logarithm of the IC50, by convention in mol/L. As usually defined, the MIC is the lowest concentration that inhibits growth of the organism. One may read the Kd as the free concentration of one partner at which half of the binding sites on the other are occupied at equilibrium, for simple one-to-one binding. A high value points to weaker binding.

Assay [1] in a line: Inhibition of bacterial N-terminal His6-tagged VIM2 (27 to 266 residues) expressed in Escherichia coli BL21 DE3 pLysS cells using FC-5 as substrate pretreated for 10 mins followed by substrate addition measured every 60 secs by fluorescence assay. Also noted: species or system Bacteria.
A short description of assay [2]: Inhibition of bacterial N-terminal His6-tagged TEM1 expressed in Escherichia coli BL21 DE3 pLysS cells using FC-5 as substrate pretreated for 10 mins followed by substrate addition measured every 60 secs by fluorescence assay. Also noted: species or system Bacteria.
A short description of assay [3]: Inhibition of bacterial N-terminal His6-tagged NDM1 expressed in Escherichia coli BL21 DE3 pLysS cells using FC-5 as substrate pretreated for 10 mins followed by substrate addition measured every 60 secs by fluorescence assay. Also noted: species or system Bacteria.
In assay [4] the test system is Bacteria. The experiment in a line: Reversible inhibition of bacterial N-terminal His6-tagged VIM2 (27 to 266 residues) expressed in Escherichia coli BL21 DE3 pLysS cells at 11 uM using FC-5 as substrate pretreated for 30 mins followed by substrate addition by jump-dilution method.
The nature of assay [5]: Inhibition of bacterial N-terminal His6-tagged VIM2 (27 to 266 residues) expressed in Escherichia coli BL21 DE3 pLysS cells using FC-5 as substrate pretreated for 10 mins followed by substrate addition by fluorescence assay. Set-up: species or system Bacteria.
Assay [6] relates to Bacteria. The experiment in a line: Competitive inhibition of bacterial N-terminal His6-tagged VIM2 (27 to 266 residues) expressed in Escherichia coli BL21 DE3 pLysS cells using varying levels of FC-5 as substrate by fluorescence assay.
Assay [7] concerns Escherichia coli. The experiment in a line: Potentiation of meropenem-induced antimicrobial activity against Escherichia coli BL21(DE3) harboring VIM-2 assessed as meropenem MIC at 100 uM measured after 16 to 20 hrs by microdilution broth method (reference value: 16 mg/L). The assay is classed as functional. (In broth dilution the organism is exposed to a series of concentrations in liquid medium.)

Assay [8] relates to Escherichia coli. Put plainly: Potentiation of meropenem-induced antimicrobial activity against Escherichia coli BL21(DE3) assessed as meropenem MIC at 100 uM measured after 16 to 20 hrs by microdilution broth method (reference value: <0.125 mg/L). The assay is classed as functional.
For assay [9], the system named is Escherichia coli. The experiment in a line: Potentiation of meropenem-induced antimicrobial activity against Escherichia coli BL21(DE3) assessed as meropenem MIC at 10 uM measured after 16 to 20 hrs by microdilution broth method (reference value: <0.125 mg/L). In kind it is functional.
Assay [10] is described as follows: Binding affinity to bacterial N-terminal His6-tagged VIM2 (27 to 266 residues) expressed in Escherichia coli BL21 DE3 pLysS cells by isothermal calorimetric method. Set-up: species or system Bacteria. For orientation: Isothermal titration calorimetry measures the heat released or taken up as one component is titrated into another.
In assay [11] the test system is Escherichia coli. The experiment in a line: Potentiation of meropenem-induced antimicrobial activity against Escherichia coli BL21(DE3) assessed as meropenem MIC at 25 uM measured after 16 to 20 hrs by microdilution broth method (reference value: <0.125 mg/L). The assay is classed as functional.
Assay [12] deals with Escherichia coli. The experiment in a line: Potentiation of meropenem-induced antimicrobial activity against Escherichia coli BL21(DE3) harboring VIM-2 assessed as meropenem MIC at 50 uM measured after 16 to 20 hrs by microdilution broth method (reference value: 16 mg/L). In kind it is functional.
Assay [13] concerns Escherichia coli. Put plainly: Potentiation of meropenem-induced antimicrobial activity against Escherichia coli BL21(DE3) assessed as meropenem MIC at 50 uM measured after 16 to 20 hrs by microdilution broth method (reference value: <0.125 mg/L). The assay is classed as functional.
In assay [14] the test system is Bacteria. Put plainly: Reversible inhibition of bacterial N-terminal His6-tagged VIM2 (27 to 266 residues) expressed in Escherichia coli BL21 DE3 pLysS cells at 415 uM using FC-5 as substrate pretreated for 30 mins followed by substrate addition by jump-dilution method.
Assay [15] has as its system Escherichia coli. Put plainly: Potentiation of meropenem-induced antimicrobial activity against Escherichia coli BL21(DE3) harboring VIM-2 assessed as meropenem MIC at 25 uM measured after 16 to 20 hrs by microdilution broth method (reference value: 16 mg/L). The assay is classed as functional.
For assay [16], the system named is Escherichia coli. The experiment in a line: Potentiation of meropenem-induced antimicrobial activity against Escherichia coli BL21(DE3) harboring VIM-2 assessed as meropenem MIC at 10 uM measured after 16 to 20 hrs by microdilution broth method (reference value: 16 mg/L). In kind it is functional.

Calls of active or inactive are those of the source. The rule behind the calls is not given here. Where only a bound is given, the exact number is not on record here.

On to `O=C(O)[C@H](O)Cc1ccc(O)c(O)c1`, for which the results for the IC50 in [1], in [2] and in [3] were above 600 µM, 189 µM and above 600 µM, respectively. In addition, the results for the pIC50 in assay [1], in assay [2] and in [3] were below 3.2, 3.72 and below 3.2, respectively.

Take `O=C(O)/C=C/c1ccc(O)c(O)c1` [CAFFEIC ACID]: the IC50 in assay [1], in assay [2] and in assay [3] was above 600 µM each time. The pIC50 in assay [1], in assay [2] and in assay [3] was below 3.2 in each case.

On to `C[C@H](CS)C(=O)N1CCC[C@H]1C(=O)O` [CAPTOPRIL], for which the inhibition result in the assay on Bacteria [4] was “Active”. Further, the half-maximal inhibitory concentration (IC50) in assay [5] was found to be 2.47 µM.

Regarding `O=C(/C=C/c1ccc(O)c(O)c1)O[C@H](Cc1ccc(O)c(O)c1)C(=O)O` [ROSMARINIC ACID], the results for the IC50 in [1], in assay [2] and in assay [3] were 41.5 µM, above 600 µM and above 600 µM, respectively. In addition, the pIC50 in assay [1] is 4.38; in assay [2], below 3.2; in assay [3], below 3.2. In the assay on Bacteria [6], the inhibition entry was “Dose-dependent effect”. Further, the minimal inhibitory concentration (MIC) with Escherichia coli [7] was 8 µg/mL; in the assay with Escherichia coli [8], below 0.125 µg/mL; in the assay with Escherichia coli [9] it was below 0.125 µg/mL; in the assay with Escherichia coli [11] it was below 0.125 µg/mL; in the assay with Escherichia coli [12] it was 8 µg/mL; in the assay with Escherichia coli [13] it was below 0.125 µg/mL. Besides, the MIC with Escherichia coli [15] and with Escherichia coli [16] was 16 µg/mL in each case. Also, the Kd in assay [10] came to 10.2 µM. In the assay on Bacteria [14], the inhibition entry is “Active”.

In the case of `O=C(/C=C/c1ccc(O)c(O)c1/C=C/c1ccc(O)c(O)c1)O[C@H](Cc1ccc(O)c(O)c1)C(=O)O` [SALVIANOLIC ACID A], the IC50 was 27.2 µM in assay [1], 34.3 µM in assay [2] and 160 µM in [3]. Moreover, the values for the pIC50 in assay [1], in [2] and in assay [3] were 4.57, 4.46 and 3.75 to 3.79, respectively. The MIC in the assay on Escherichia coli [7] was 4 µg/mL; in the assay with Escherichia coli [8], below 0.125 µg/mL; in the assay on Escherichia coli [9] it was below 0.125 µg/mL; with Escherichia coli [11], below 0.125 µg/mL; in the assay with Escherichia coli [12], 4 µg/mL; in the assay with Escherichia coli [13], below 0.125 µg/mL. Also, the MIC with Escherichia coli [15] and with Escherichia coli [16] was 16 µg/mL in each case.
